pIC50: −log10 of the molar value.
Molecular target: SARS-CoV-2 3CL protease (Severe acute respiratory syndrome coronavirus 2, UniProt P0DTD1)
Assay: Inhibitory activity test against SARS-CoV-2 3CL proteases
Type: biochemical
Settings: read-out: IC50 (50% SARS-CoV-2 3CL protease inhibitory concentration)

## COc1cc(-c2cc(C(=O)N3CCOCC3)ccc2Cl)cc2c1c(=O)n(-c1cncc(C)c1)c(=O)n2Cc1ccc(F)c(C#N)c1 [Compound I-0209]
  pIC50: > 7.00

## COc1cc(-c2cc(CC(=O)NCCN(C)C)ccc2Cl)cc2c1c(=O)n(-c1cncc(Cl)c1)c(=O)n2Cc1cc(Cl)ccc1C [Compound I-0189]
  pIC50: 8.15

## NC1CCN(c2ccc3c(=O)n(Cc4ccc[nH]c4=O)c(=O)n(Cc4cc(F)c(F)c(F)c4)c3c2)C1 (stereo not drawn) [Compound I-0142]
  pIC50: 7.60

## O=c1[nH]cccc1Cn1c(=O)c2ccc(N3C[C@@H]4CC[C@H]3CN4)cc2n(Cc2cc(F)c(F)c(F)c2)c1=O [Compound I-0380]
  pIC50: 7.85

## COc1cc(-c2c(Cl)ccc3c2CN(C)C3=O)cc2c1c(=O)n(Cc1ncn(C)n1)c(=O)n2Cc1cc(F)c(F)c(F)c1 [Compound I-0278]
  pIC50: 7.59

## COc1nc(N2CCC(C#N)C2)cc2c1c(=O)n(Cc1ncn(C)n1)c(=O)n2Cc1cc(F)c(F)c(F)c1 (stereo not drawn) [Compound I-0451]
  pIC50: > 7.00

## COc1cc(-c2c(Cl)ccc3ncccc23)cc2c1c(=O)n(Cc1ncn(C)n1)c(=O)n2Cc1cc(F)c(F)c(F)c1 [Compound I-0124]
  pIC50: > 7.00

## Cn1cnc(Cn2c(=O)c3c(F)c(Cl)c(-c4cc(C#N)ccc4Cl)cc3n(Cc3cc(F)c(F)c(Cl)c3)c2=O)n1 [Compound I-0506]
  pIC50: > 7.00

## COc1cc(-c2cc(NS(C)(=O)=O)ccc2Cl)cc2c1c(=O)n(-c1cncc(C)c1)c(=O)n2Cc1cc(F)c(F)c(F)c1 [Compound I-0070]
  pIC50: 8.01

## COc1cc(-c2cc(C(C)(C)O)ccc2Cl)cc2c1c(=O)n(-c1cncc(C)c1)c(=O)n2Cc1ccc(F)c(C#N)c1 [Compound I-0061]
  pIC50: 8.54

## COc1cc(-c2cc(S(N)(=O)=O)ccc2Cl)cc2c1c(=O)n(Cc1ncn(C)n1)c(=O)n2Cc1cc(F)c(F)c(F)c1 [Compound I-0118]
  pIC50: > 7.00

## Cn1cnc(Cn2c(=O)c3c4occc4c(-c4cc(C#N)ccc4Cl)cc3n(Cc3cc(F)c(F)c(F)c3)c2=O)n1 [Compound I-0473]
  pIC50: 8.39

## COc1cc(N2C[C@H]3C[C@@H]2CN3)cc2c1c(=O)n(Cc1ncn(C)n1)c(=O)n2Cc1cc(F)c(F)c(F)c1 [Compound I-0395]
  pIC50: 8.66

## COc1cc(-c2c(Cl)ccc3c(=O)n(C)ccc23)cc2c1c(=O)n(Cc1ncn(C)n1)c(=O)n2Cc1cc(F)c(F)c(F)c1 [Compound I-0268]
  pIC50: 8.12

## Cn1cnc(Cn2c(=O)c3c(F)cc(-c4cc5c(cc4Cl)NC(=O)C5)cc3n(Cc3cc(F)c(F)c(Cl)c3)c2=O)n1 [Compound I-0267]
  pIC50: > 7.00

## COc1cc(-c2cc(C#N)ccc2Cl)cc2c1c(=O)n(-c1cncc(C)c1)c(=O)n2Cc1cc(F)c(F)c(C#N)c1 [Compound I-0165]
  pIC50: 8.92

## COc1cc(-c2cc(C(O)C(F)(F)F)ccc2Cl)cc2c1c(=O)n(Cc1ncn(C)n1)c(=O)n2Cc1cc(F)c(F)c(F)c1 (stereo not drawn) [Compound I-0517]
  pIC50: > 7.00

## COc1nc(N2CC[C@@H](C(N)=O)C2)cc2c1c(=O)n(-c1cncc(Cl)c1)c(=O)n2Cc1cc(F)c(F)c(F)c1 [Compound I-0511]
  pIC50: > 7.00

## COc1cc(-c2cc3c(cc2Cl)NC(=O)CC3)cc2c1c(=O)n(Cc1ncn(C)n1)c(=O)n2Cc1cc(F)c(F)c(F)c1 [Compound I-0125]
  pIC50: 7.49

## CN=S(C)(=O)c1ccc(Cl)c(-c2cc(OC)c3c(=O)n(-c4cncc(Cl)c4)c(=O)n(Cc4cc(F)c(F)c(F)c4)c3c2)c1 (stereo not drawn) [Compound I-0199]
  pIC50: 7.80

## COc1cc(-c2cc(CC(=O)NCCN(C)C)ccc2Cl)cc2c1c(=O)n(-c1cncc(Cl)c1)c(=O)n2Cc1cc(F)c(F)c(F)c1 [Compound I-0204]
  pIC50: > 7.00

## COc1cc(-c2cc(C(=O)NCCO)ccc2Cl)cc2c1c(=O)n(Cc1ncn(C)n1)c(=O)n2Cc1cc(F)c(F)c(F)c1 [Compound I-0214]
  pIC50: > 7.00

## Cn1cnc(Cn2c(=O)c3ccc(-c4cc5c(cc4Cl)NC(=O)C5)c(F)c3n(Cc3cc(F)c(F)c(F)c3)c2=O)n1 [Compound I-0250]
  pIC50: 7.46

## O=c1[nH]cccc1Cn1c(=O)c2c(n(Cc3cc(F)c(F)c(F)c3)c1=O)CCCC2 [Compound I-0325]
  pIC50: 6.35
